This is an account of results in US20240352053A1, “SALT AND CRYSTAL FORM OF EGFR INHIBITOR, AND COMPOSITION AND USE THEREOF” (BETTA PHARMACEUTICALS CO., LTD, priority 2021, published 2024).

Like-named read-outs stand apart in the source and are kept apart here.

Data set [1] is described as follows: Pharmacokinetic test, oral administration in male SD rats. In kind it is in vivo, rat. To be noted: plasma, 50 mg/kg, distilled water. As to the method: Male SD rats purchased from Beijing Weitonglihua Experimental Animal Technology Co Ltd. were used for oral administration PK studies. The dose was 50 mg/kg, the preparation was distilled water, and the compound concentrations corresponding to the test compounds were 5 mg/mL, ready for use. Oral administration is by oral gavage at 10 mL/kg. Blood was collected through the rat orbital venous plexus, and […] was taken at each time point into an EDTA anticoagulant tube. The blood collection time is: 15 min, 30 min, 1 h, 2 h, 4 h, 7 h, 24 h, 30 h, 48 h, centrifuge at 4000 rpm for 10 min, take the supernatant to obtain 100 μL plasma, and store it in a −80° C. refrigerator, spare. After precipitating the protein from the above plasma sample with acetonitrile, take the supernatant and mix it with water 1:1, and take 10 μL for LC-MS/MS detection.

The subject of data set [2] is human epidermal cancer cell A431 carrying EGFR WT. To be noted: 72 hours, CTG; data recorded in PCT/CN2021/075994; cited from earlier work.
Data set [3] has as its system Ba/F3-Δ19del/T790M/C797S cells. As to conditions: 72 hours, CTG; data recorded in PCT/CN2021/075994; read-out: Ba/F3/EGFR Δ19del/T790M/C797S IC50; cited from earlier work.
Data set [4] concerns Ba/F3 EGFR WT cells. To be noted: 72 hours, CTG; data recorded in PCT/CN2021/075994; read-out: BaF3 EGFR WT IC50; cited from earlier work.
The nature of data set [5]: Measurement of crystal form stability (HPLC chemical purity, XRPD). Type of data set: physicochemical. To be noted: for Chemical purity (%) 0 days: HPLC. As to the method:
The X-ray powder diffraction pattern detection equipment and method of the present invention are as shown in the X-ray powder diffraction table in the instrument and analysis method. After the test compounds are placed under different temperature, humidity and light conditions for a period of time, the purity is tested. Purity testing method: Use high-performance liquid chromatography (HPLC) to detect the chemical purity of this product. Determine according to high performance liquid chromatography (“Chinese Pharmacopoeia” 2020 edition, Part IV, General Chapter 0512). […] XRPD characterization was performed on the samples after being placed under different temperature, humidity and light conditions for a period of time.

A short description of data set [6]: DVS test (dynamic vapor sorption). Type of data set: physicochemical. The source says:
Take crystal form A of the compound represented by Formula III for DVS measurement, and the obtained DVS spectrum is shown in FIG. 5-2.

`COc1cc(N2CCC(N3CCN(C)CC3)CC2)c(C)cc1Nc1ncc(Br)c(Nc2ccc3nc(C4CC4)ccc3c2P(C)(C)=O)n1.O=C(O)C[C@H](O)C(=O)O` registered an AUC(0-t) in data set [1] (male, SD, rat, po) of 27.4 µg·h/mL. In data set [1] (male, SD, rat, po, read-out: Cmax), the Cmax came out at 1.99 µg/mL.

With `COc1cc(N2CCC(N3CCN(C)CC3)CC2)c(C)cc1Nc1ncc(Br)c(Nc2ccc3nc(C4CC4)ccc3c2P(C)(C)=O)n1` [(6-((5-bromo-2-((2-methoxy-5-methyl-4-(4-(4-methylpiperazin-1-yl))piperidin-1-yl)phenyl)amino)pyrimidin-4-yl)amino)-2-cyclopropylquinolin-5-yl)dimethylphosphine oxide], the IC50 in data set [2] is 1.13 µM; in data set [3], 0.0068 µM; in data set [4], 0.151 µM.

As to `CCc1cc(Nc2ncc(Br)c(Nc3ccc4ncccc4c3P(C)(C)=O)n2)c(OC)cc1N1CCC(N2CCN(C)CC2)CC1` [Control Example 1, reference compound], the IC50 in data set [2] was 0.245 µM; in data set [3], 0.009 µM; in data set [4], 0.0399 µM.

Consider `COc1cc(N2CCC(N3CCN(C)CC3)CC2)c(C)cc1Nc1ncc(Br)c(Nc2ccc3nc(C4CC4)ccc3c2P(C)(C)=O)n1.O=C(O)C[C@H](O)C(=O)O` [Crystal form A of the compound represented by formula III], for which the “Chemical purity (%) 0 days” value in data set [5] came to 98.85%. Further, in data set [5] (60° C., placement time 13 days), the “Chemical purity (%) 60° C.” value is given as 98.80%. In data set [5] (placement time 13 days), the “Chemical purity (%) 92.5% RH” value worked out at 98.98% and the “Chemical purity (%) 4500 lx illumination” value is recorded as 98.83%. Besides, the hygroscopic weight gain entry in data set [6] (25° C./80% RH) is “about 3.43%”. The “sample weight after placement in DVS” value in data set [6] (25° C./80% RH for 24 hours) is “remained basically unchanged”. Besides, the “crystal form after placement in DVS” value in data set [6] (25° C./80% RH, after 24 hours) is on record as “did not change”. Further, the “crystal form before and after the DVS test” value in data set [6] (DVS, 25° C.) is “does not change”. In data set [1], this compound returned an AUClast of 47.593 µg·h/mL and a Cmax of 2.557 µg/mL.

As to `COc1cc(N2CCC(N3CCN(C)CC3)CC2)c(C)cc1Nc1ncc(Br)c(Nc2ccc3nc(C4CC4)ccc3c2P(C)(C)=O)n1.O=C(O)C[C@H](O)C(=O)O` [Crystal form J of the compound represented by formula III], the “Chemical purity (%) 0 days” value in data set [5] amounted to 99.59%. In data set [5] (placement time 10 days), the “Chemical purity (%) 92.5% RH” value is 99.59% and the “Chemical purity (%) 4500 lx illumination” value is on record as 96.05%.

In general, AUC(0-t) refers to exposure summed from dosing to a finite time, without extrapolation to infinity. Read a low AUC(0-t) as low exposure. Broadly, the Cmax is the highest concentration seen after dosing.
